According to patent US5519163A, “Inhibitors of phosphoinositide-specific phospholipase C” (Merck & Co., Inc., priority 1993, dated 1996):

Tests used:
PLCβ = test: Inhibition of PLCβ purified from bovine brain (assay mixture as in Example 12); assay type: biochemical; settings: PLCβ from bovine brain substituted for PLCγ; Tables 3 and 4
Experimental: Assay of purified PLCγ1 activitiy. Activity of the purified PLCγ1 was assayed at 30° C. Reactions were never allowed to proceed to more than 10% completion based on the limiting substrate. A typical reaction contained the following: 50 mM HEPES pH7.5, 0.1% Deoxycholate, 3 mM CaCl2, 1 mM EGTA, 0.1 mM DTT with phosphatidyl inositol (1-1000 μM) (PI) and 0.02 uCi [^3 H]-phosphatidyl inositol (PI) as substrate. The phospholipid components were dried under a gentle stream of nitrogen and resuspended in assay buffer. The substrate mix is then vortexed and sonicated (10 sec. with probe sonicator) to disperse the lipid and form micelles. After thermally preequilibrating the assay mixture in the absence of enzyme, the reaction was initiated by adding PLCγ1. Reactions containing 0.2 ml aliquots were terminated by addition of 1/4 volume 1N HCl, 5 mM EGTA and transferred to an ice bath. The quenched reactions are then filtered through a Q sepharose (Pharmacia) column. To prepare the Q sepharose column 1 ml of Q Sepharose slurry is added to a disposable plastic column. The resin is equilibrated by passing through 20 ml of 10 mM NH4 H2 PO4, pH 3.5. The quenched reaction, typically 200 μl, is applied to the column and 3 ml of 10 mM NH4 H2 PO4, pH 3.5 is added, the flow through from this step is collected in a scintillation vial, mixed with 10 ml of scintillation fluid and counted in a Beckman LS3801 scintillation counter.
PLC-β are obtained as described by S. G. Rhee et al., Meth. Enzym., 197:502-511 (1991). Specifically PLC-δ is purified from the cytosolic fraction of bovine brains, while PLC-β is mainly obtained from the particulate fraction. However, since the particulate and cytosolic forms of PLC-β are identical with respect to amino acid sequence, PLC-β-containing fractions pooled during the purification of the cytosolic PLC-δ are combined with the PLC-β fraction from the particulate fraction. A total of 36 bovine brains are used for the purification. Twelve brains are processed at one time.
Step 8: Ion-Exchange Chromatography of PLC-β on DEAE-Cellulose. Because of turbidity, the combined protein solution from Steps 2 and 3 cannot be chromatographed on a DEAE-cellulose column directly. Therefore, two stages of DEAE-cellulose chromatography, a batch procedure followed by a column step, are employed. In the batch step, all of the combined proteins are absorbed on 2 liters of DEAE-cellulose equilibrated with 20 mM Tris-HCl, pH 7.6, containing 5 mM EGTA and 0.1 mM DTT. The DEAE-cellulose slurry is stirred and then collected in a 4-liter sintered glass (coarse) filter funnel. The DEAE-cellulose is washed with the equilibration buffer until it is free of turbid lipid materials and unbound protein. For the column procedure, the washed DEAE-cellulose is removed from the filter funnel, mixed with the equilibration buffer, and poured onto a column already containing a 10 cm high bed of equilibrated DEAE-cellulose (final dimension, 8×45 cm). The column is eluted at a flow rate of 8 ml/min with an 8-liter linear gradient from 0 to 300 mM KCl buffer containing 50 mM Tris-HCl, pH 7.6, 1 mM EGTA, and 0.1 mM DTT. The activity peak is eluted at a KCl concentration of 110 mM. The peak fractions (600 ml) are pooled.
Step 9: Heparin-Agarose Chromatography of PLC-β. The pooled fraction from Step 8 (600 ml) is applied to a heparin-agarose column (5×25 cm) equilibrated with 20 mM HEPES, pH 7.0, 100 mM NaCl, 0.1 mM DTT, and 1 mM EGTA. The column is eluted with a linear gradient from 100 to 500 mM NaCl in 1.5 liters of equilibrium buffer. Peak fractions (310 ml) are pooled and concentrated on an Amicon filter to 27 ml.
Step 10: Reversed-Phase Chromatography of PLC-β on TSK Phenyl-5-PW. Solid KCl is added to the concentrated fractions from Step 9 to give a concentration of 3M, and the mixtures are centrifuged to remove denatured proteins. […]

PLCγ1 = target: T1, PLCγ1 (Rattus norvegicus, UniProt P10686); test: Inhibition of purified recombinant PLCγ1 ([3H]-phosphatidyl inositol hydrolysis); assay type: biochemical; settings: PLCγ1, 30° C., phosphatidyl inositol substrate; Tables 1 and 2
T1 construct: made in house; host or cells: E. coli BL21 (DE3), plasmid pT5T-PLC4 (ATCC 69421)
T1 sequence (P10686 with tags, fused parts or gaps): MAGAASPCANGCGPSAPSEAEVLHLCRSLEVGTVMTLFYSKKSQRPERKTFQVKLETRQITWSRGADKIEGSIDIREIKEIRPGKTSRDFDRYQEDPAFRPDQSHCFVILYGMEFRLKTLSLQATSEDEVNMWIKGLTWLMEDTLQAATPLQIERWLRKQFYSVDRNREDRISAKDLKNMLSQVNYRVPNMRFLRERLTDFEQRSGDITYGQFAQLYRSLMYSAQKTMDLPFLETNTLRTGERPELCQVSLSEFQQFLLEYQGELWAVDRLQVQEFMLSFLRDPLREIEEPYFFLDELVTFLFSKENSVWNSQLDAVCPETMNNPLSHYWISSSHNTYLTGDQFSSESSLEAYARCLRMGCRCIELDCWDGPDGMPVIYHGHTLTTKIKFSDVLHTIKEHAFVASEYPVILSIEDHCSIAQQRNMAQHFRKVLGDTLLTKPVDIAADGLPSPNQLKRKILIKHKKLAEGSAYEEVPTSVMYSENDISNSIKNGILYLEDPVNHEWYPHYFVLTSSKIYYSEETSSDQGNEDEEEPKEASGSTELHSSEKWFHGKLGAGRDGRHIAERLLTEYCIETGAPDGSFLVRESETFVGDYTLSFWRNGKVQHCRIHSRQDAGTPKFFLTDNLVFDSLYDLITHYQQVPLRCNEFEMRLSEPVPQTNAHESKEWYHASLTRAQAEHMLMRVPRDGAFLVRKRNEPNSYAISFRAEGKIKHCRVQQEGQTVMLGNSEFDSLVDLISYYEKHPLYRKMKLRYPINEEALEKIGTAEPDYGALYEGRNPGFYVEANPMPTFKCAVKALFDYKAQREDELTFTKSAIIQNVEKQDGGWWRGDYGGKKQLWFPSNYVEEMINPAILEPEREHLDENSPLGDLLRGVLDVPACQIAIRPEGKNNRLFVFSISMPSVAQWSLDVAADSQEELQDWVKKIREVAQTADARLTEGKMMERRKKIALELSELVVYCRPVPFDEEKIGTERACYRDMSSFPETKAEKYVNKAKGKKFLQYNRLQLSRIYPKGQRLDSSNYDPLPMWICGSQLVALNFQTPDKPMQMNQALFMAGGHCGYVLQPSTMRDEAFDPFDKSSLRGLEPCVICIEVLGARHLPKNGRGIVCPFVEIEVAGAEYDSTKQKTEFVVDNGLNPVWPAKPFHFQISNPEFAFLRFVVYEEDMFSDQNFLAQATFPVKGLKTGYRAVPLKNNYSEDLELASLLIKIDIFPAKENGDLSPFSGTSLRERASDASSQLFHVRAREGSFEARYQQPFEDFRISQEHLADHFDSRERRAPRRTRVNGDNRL
Text: Subcloning of the PLCγ Coding Sequence. Rat brain cDNA is synthesized using rat brain poly(A)RNA as template by literature protocol (Sanbrook, J. et al., Molecular Cloning: A Laboratry Manual, Cold Spring Harbor Laboratory Press, Cold Spring Harbor, N.Y.). From the published cDNA sequence of rat brain PLCγ1 (Suh, P.-G., Ryu, S. H., Moon, K. H., Suh, H. W., & Rhee, S. G. (1988) Proc. Natl. Acad. Sci. USA 85, 5419-5423), PCR primers, one which contains a BamHI restriction site upstream of the sequence complementary to the 5' end of the PLCγ1 gene (primer 01), and the other one which contains a HindIII site downsteam of the 3' end of the PLCγ gene (primer 04), were synthesized. Carrying out the PCR using these primers (01 and 04) with the above mentioned rat brain cDNA as template, a DNA fragment with the entire rat brain PLCγ1 coding sequence, flanked by a 5' BamHI site and a 3' HindIII site, is generated. This BamHI-HindIII fragment containing the coding sequence of PLCγ was subcloned into pBSII(S/K)+, generating pPLC1. The rest of the manipulations were accomplished using PCR to generate the appropriate DNA fragment. […]

Row | Compound | IC50 (PLCβ) [µM] | IC50 (PLCγ1) [µM]
1 | O=P(O)(O)C(O)c1cccc(Oc2ccc(O)cc2)c1 (stereo not shown) [Example 8, 1-Hydroxy-1-(3-(4-hydroxyphenoxy)phenyl)methylphosphonic acid] | 7 | 
2 | O=P(O)(O)C(O)c1ccc(Oc2cccc(Cl)c2)cc1 (stereo not shown) [Example 9, 1-Hydroxy-1-(4-(3-chlorophenoxy)phenyl)methylphosphonic acid] | 9 | 
3 | COc1ccc(Oc2cccc(C(O)P(=O)(O)O)c2)cc1 (stereo not shown) [Example 6, 1-Hydroxy-1-(3-(4-methoxyphenoxy)phenyl)methylphosphonic acid] | 717 | 
4 | O=P(O)(O)C(O)c1cccc(Oc2ccc(Cl)c(Cl)c2)c1 (stereo not shown) [Example 3, 1-Hydroxy-1-(3-(3,4-dichlorophenoxy)phenyl)methylphosphonic acid] | 110 | 
5 | O=P(O)(O)C(O)c1cccc(Oc2cccc(Cl)c2)c1 (stereo not shown) [Example 1, 1-Hydroxy-1-(3-(3-chlorophenoxy)phenyl)methylphosphonic acid] | 24 | 
6 | O=P(O)(O)C(O)c1ccc(Oc2ccccc2)cc1 (stereo not shown) [reference compound] | > 300 | > 300
7 | O=P(O)(O)C(O)c1cccc(Oc2ccccc2)c1 (stereo not shown) [Example 2, 1-Hydroxy-1-(3-phenoxyphenyl)methylphosphonic acid] | > 300 | 
8 | O=P(O)(O)C(O)c1cccc(Oc2ccccc2Cl)c1 (stereo not shown) [Example 5, 1-Hydroxy-1-(3-(2-chlorophenoxy)phenyl)methylphosphonic acid] | 38 | 
9 | Cc1ccc(Oc2cccc(C(O)P(=O)(O)O)c2)cc1 (stereo not shown) [Example 7, 1-Hydroxy-1-(3-(4-methylphenoxy)phenyl)methylphosphonic acid] | 31 | 
10 | CCc1cccc(Oc2ccc(C(O)P(=O)(O)O)cc2)c1 (stereo not shown) [Example 10, 1-Hydroxy-1-(4-(3-ethylphenoxy)phenyl)methylphosphonic acid] | 74 | 
11 | COc1cccc(Oc2ccc(C(O)P(=O)(O)O)cc2)c1 (stereo not shown) [Example 11, 1-Hydroxy-1-(4-(3-methoxyphenoxy)phenyl)methylphosphonic acid] | 11 | 
12 | O=P(O)(O)C(O)c1cccc(Oc2ccc(Cl)cc2)c1 (stereo not shown) [Example 4, 1-Hydroxy-1-(3-(4-chlorophenoxy)phenyl)methylphosphonic acid] | 65 | 
